Legend:
Mus musculus [1] = assay: Toxicity in Balb/c mouse implanted with mouse C26 cells assessed as change in body weight at 100 mg/kg, po qd treated for 10 days and measured every 2 days (RVB = 16.4%); assay type: organism-based; conditions: in vivo
NCI-H1975 [2] = assay: Antiproliferative activity against human NCI-H1975 cells after 72 hrs by MTT assay; assay type: functional, cell-based; conditions: NCI-H1975, 72 h
NCI-H460 [3] = assay: Antiproliferative activity against human H460 cells after 72 hrs by MTT assay; assay type: functional, cell-based; conditions: NCI-H460, 72 h
A549 = assay: Antiproliferative activity against human A549 cells after 72 hrs by MTT assay; assay type: functional, cell-based; conditions: A549, 72 h
[4] = Antiproliferative activity against human SPC-A1 cells after 72 hrs by MTT assay; assay type: functional, cell-based; conditions: SPCA1, 72 h
NCI-H1650 = assay: Antiproliferative activity against human NCI-H1650 cells after 72 hrs by MTT assay; assay type: functional, cell-based; conditions: NCI-H1650, 72 h
PC-9 = assay: Antiproliferative activity against human PC9 cells after 72 hrs by MTT assay; assay type: functional, cell-based; conditions: PC-9, 72 h
NCI-H358 = assay: Antiproliferative activity against human NCI-H358 cells after 72 hrs by MTT assay; assay type: functional, cell-based; conditions: NCI-H358, 72 h
NCI-H1975 [5] = assay: Cell cycle arrest in human NCI-H1975 cells assessed as reduction in accumulation at S phase after 24 hrs by propidium iodide staining-based flow cytometric analysis; assay type: functional
NCI-H1975 [6] = assay: Cell cycle arrest in human NCI-H1975 cells assessed as accumulation at G0/G1 phase at 10 uM after 24 hrs by propidium iodide staining-based flow cytometric analysis (reference value: 56.11%); assay type: functional
NCI-H1975 [7] = assay: Induction of apoptosis in human NCI-H1975 cells after 48 hrs by annexin V/FITC-propidium iodide staining-based flow cytometric method; assay type: functional, cell-based
NCI-H1975 [8] = assay: Induction of apoptosis in human NCI-H1975 cells assessed as late apoptotic cells at 5 uM after 48 hrs by annexin V/FITC-propidium iodide staining-based flow cytometric method ( Rvb = 10.4%); assay type: functional
NCI-H1975 [9] = assay: Induction of apoptosis in human NCI-H1975 cells assessed as necrotic cells at 5 uM after 48 hrs by annexin V/FITC-propidium iodide staining-based flow cytometric method ( Rvb = 1.01%); assay type: functional
NCI-H1975 [10] = assay: Induction of apoptosis in human NCI-H1975 cells assessed as viable cells at 5 uM after 48 hrs by annexin V/FITC-propidium iodide staining-based flow cytometric method ( Rvb = 82.5%); assay type: functional; conditions: NCI-H1975, 48 h, read-out: Activity
NCI-H1975 [11] = assay: Induction of apoptosis in human NCI-H1975 cells assessed as early apoptotic cells at 10 uM after 48 hrs by annexin V/FITC-propidium iodide staining-based flow cytometric method ( Rvb = 6.09%); assay type: functional
NCI-H1975 [12] = assay: Induction of apoptosis in human NCI-H1975 cells assessed as necrotic cells at 10 uM after 48 hrs by annexin V/FITC-propidium iodide staining-based flow cytometric method ( Rvb = 1.01%); assay type: functional
NCI-H1975 [13] = assay: Induction of apoptosis in human NCI-H1975 cells assessed as early apoptotic cells at 20 uM after 48 hrs by annexin V/FITC-propidium iodide staining-based flow cytometric method ( Rvb = 6.09%); assay type: functional
HUVEC = assay: Antimigratory activity against HUVEC after 24 to 48 hrs by phase contrast/fluorescence microscopic analysis; assay type: functional, cell-based; conditions: Homo sapiens
Mus musculus [14] = assay: Toxicity in Balb/c mouse xenografted with human NCI-H1975 cells assessed as change in body weight at 10 mg/kg, iv treated every 2 days for 9 days and measured every 2 days after compound dosing ( Rvb = 2.89%); assay type: organism-based; conditions: in vivo
Mus musculus [15] = assay: Toxicity in Balb/c mouse xenografted with human NCI-H1975 cells assessed as change in body weight at 20 mg/kg, iv treated every 2 days for 9 days and measured every 2 days after compound dosing ( Rvb = 2.89%); assay type: organism-based; conditions: in vivo
Mus musculus [16] = assay: Toxicity in Balb/c mouse xenografted with human NCI-H1975 cells assessed as mouse death at 10 to 100 mg/kg, po qd treated for 18 days and measured every 2 days after compound dosing; assay type: organism-based; conditions: in vivo
Mus musculus [17] = assay: Toxicity in Balb/c mouse xenografted with human NCI-H1975 cells assessed as mouse death at 5 to 20 mg/kg, iv treated every 2 days for 9 days and measured every 2 days after compound dosing; assay type: organism-based; conditions: in vivo
NCI-H1975 [18] = assay: Antitumor activity against human NCI-H1975 cells xenografted in Balb/c mouse assessed as change in tumor mass at 100 mg/kg, po qd treated for 18 days and measured every 2 days after compound dosing relative to control; assay type: functional
NCI-H1975 [19] = assay: Antitumor activity against human NCI-H1975 cells xenografted in Balb/c mouse assessed as change in tumor mass at 10 mg/kg, iv treated every 2 days for 9 days and measured every 2 days after compound dosing relative to control; assay type: functional
NCI-H1975 [20] = assay: Induction of apoptosis in human NCI-H1975 cells assessed as decrease in Cdk4 level after 24 hrs by Western blot analysis; assay type: functional, cell-based
NCI-H1975 [21] = assay: Induction of apoptosis in human NCI-H1975 cells assessed as increase in cleaved caspase-3 level after 48 hrs by Western blot analysis; assay type: functional, cell-based
Mus musculus [22] = assay: Toxicity in Balb/c mouse implanted with mouse C26 cells assessed as mouse death at 100 mg/kg, po qd treated for 10 days; assay type: organism-based; conditions: in vivo, 240 h
Mus musculus [23] = assay: Toxicity in Balb/c mouse xenografted with human NCI-H1975 cells assessed as induction of vascular irritation at 5 to 20 mg/kg, iv treated every 2 days for 9 days; assay type: organism-based; conditions: in vivo
Mus musculus [24] = assay: Toxicity in Balb/c mouse xenografted with human NCI-H1975 cells assessed as effect on liver morphology at 5 to 20 mg/kg, iv treated every 2 days for 9 days; assay type: organism-based; conditions: in vivo
Mus musculus [25] = assay: Toxicity in Balb/c mouse xenografted with human NCI-H1975 cells assessed as effect on kidney size at 5 to 20 mg/kg, iv treated every 2 days for 9 days; assay type: organism-based; conditions: in vivo
Mus musculus [26] = assay: Toxicity in Balb/c mouse xenografted with human NCI-H1975 cells assessed as effect on kidney morphology at 5 to 20 mg/kg, iv treated every 2 days for 9 days; assay type: organism-based; conditions: in vivo
Mus musculus [27] = assay: Toxicity in Balb/c mouse xenografted with human NCI-H1975 cells assessed as effect on lung morphology at 5 to 20 mg/kg, iv treated every 2 days for 9 days; assay type: organism-based; conditions: in vivo
Mus musculus [28] = assay: Toxicity in Balb/c mouse xenografted with human NCI-H1975 cells assessed as effect on heart size at 5 to 20 mg/kg, iv treated every 2 days for 9 days; assay type: organism-based; conditions: in vivo
Mus musculus [29] = assay: Toxicity in Balb/c mouse xenografted with human NCI-H1975 cells assessed as effect on heart morphology at 5 to 20 mg/kg, iv treated every 2 days for 9 days; assay type: organism-based; conditions: in vivo
NCI-H1975 [30] = assay: Potency index, ratio of IC50 for honokiol to IC50 for test compound for antiproliferative activity against human NCI-H1975 cells after 72 hrs by MTT assay; assay type: functional
NCI-H460 [31] = assay: Potency index, ratio of IC50 for honokiol to IC50 for test compound for antiproliferative activity against human H460 cells after 72 hrs by MTT assay; assay type: functional
HCC827 = assay: Potency index, ratio of IC50 for magnolol to IC50 for test compound for antiproliferative activity against human HCC827 cells after 72 hrs by MTT assay; assay type: functional

C=CCc1ccc(O)c(-c2cc(CC=C)cc(CN3CCC(N)CC3)c2O)c1
Activity (Mus musculus [1]): -9.3%
IC50 (NCI-H1975 [2]): 5.61 µM
IC50 (NCI-H460 [3]): 5.98 µM
IC50 (A549): 5.48 µM
IC50 [4]: 7.89 µM
IC50 (NCI-H1650): 4.81 µM
IC50 (PC-9): 12.5 µM
IC50 (NCI-H358): 7.43 µM
Activity (NCI-H1975 [5]): Dose-dependent effect
Activity (NCI-H1975 [6]): 67.09%
Activity (NCI-H1975 [7]): Dose-dependent effect
Activity (NCI-H1975 [8]): 26.3%
Activity (NCI-H1975 [9]): 0.52%
viability at 5 µM (NCI-H1975 [10]): 66.5%
Activity (NCI-H1975 [11]): 10.1%
Activity (NCI-H1975 [12]): 0.4%
Activity (NCI-H1975 [13]): 46.8%
Activity (HUVEC): Dose-dependent effect
Activity (Mus musculus [14]): 8.89%
Activity (Mus musculus [15]): 8.23%
Activity (Mus musculus [16]): Non-Toxic
Activity (Mus musculus [17]): Non-Toxic
Activity (NCI-H1975 [18]): 61.2%
Activity (NCI-H1975 [19]): 57.5%
Activity (NCI-H1975 [20]): Dose-dependent effect
Activity (NCI-H1975 [21]): Dose-dependent effect
Activity (Mus musculus [22]): Non-Toxic
Activity (Mus musculus [23]): Non-Toxic
Activity (Mus musculus [24]): Non-Toxic
Activity (Mus musculus [25]): Non-Toxic
Activity (Mus musculus [26]): Non-Toxic
Activity (Mus musculus [27]): Non-Toxic
Activity (Mus musculus [28]): Non-Toxic
Activity (Mus musculus [29]): Non-Toxic
Ratio IC50 (NCI-H1975 [30]): 4
Ratio IC50 (NCI-H460 [31]): 4
Ratio IC50 (HCC827): 8

— ChEMBL document CHEMBL4152332, “Discovery and synthesis of novel magnolol derivatives with potent anticancer activity in non-small cell lung cancer” (Eur J Med Chem, 2018)
